Several values for one entry are separate records, joined by “and”; a condition that tells them apart may be missing. Equal values may be shown once. Where a name gives a salt, the structure may show the parent alone.
How the values were obtained:
[1] = tested on: pERK (Phospho/Total ERK1/2) in CT-26 Clone 299 tumors; assay: CT-26 Clone 299 pharmacodynamic model (pERK/total ERK in tumor lysates, MesoScale); format: in vivo, BALB/c-hPD1/hPDL1 mice
Description: Female BALB/c-hPD1/hPDL1 mice (GemPharmatech, aged 8-10 weeks) were inoculated subcutaneously with 1.0×10^6 CT-26 Clone 299 cells suspended in phosphate buffered saline.
Oral dose administration was continuous for 5 days and 2 doses of Retifanlimab was given. On day 5, plasma and tumor samples were collected 4 hour post oral dose and 24 hours post IP dose following CO2 asphyxiation. Blood was collected into ethylenediaminetetraacetic acid (450480 Greiner Bio-One) tubes. The plasma was analyzed for drug levels. Two tumor fragments per individual were collected and weighed into Omni Bead Ruptor tubes (19-628 Omni International) and flash frozen. One tumor piece was lysed at a 1:5 ratio with homogenization solution (water:acetonitrile:formic acid, 95:5:0.1, v:v:v) for drug concentration analysis. The second tumor piece was then lysed at a 1:5 ratio with lysis buffer (64KL1 FD, Cisbio) with added protease inhibitors (A32957 and A32965, Thermo Fisher) and Blocking Reagent (64KB1AAC, Cisbio) on a Bead Ruptor Elite homogenizer (19-042E, Omni International, Kennesaw, GA). Tumor lysates were spun at 10,000 revolutions per minute for 10 minutes at 4° C. The protein concentration was determined using the Pierce™ BCA Protein Assay method according to the manufacturer's protocol (23227 Thermo Fisher Scientific). The lysates were diluted with additional lysis buffer to a final concentration of 0.4 μg/μL. Samples were analyzed using the MesoScale Discovery Platform on the Phospho/Total ERK1/2 Whole Cell Lysate Kit (K15107D, MesoScale Discovery, Rockville, MD). The pERK levels were first normalized to total ERK for each sample and then to the average pERK/tERK ratio of the vehicle control group.

CT-26 Clone 299 cells = assay: CT-26 Clone 299 syngeneic efficacy model; format: in vivo, BALB/c-hPD1/hPDL1 mice; details: for monotherapy-treated mice succumbed to tumor growth: after treatment cessation, by day 43, Compound 1 at 100 mg/kg
Description: BALB/c-hPD1/hPDL1 mice (GemPharmatech, strain #T004025) express human PDCD1 and CD274 (which encode the PD-1 and PD-L1 proteins, respectively) from the respective murine loci for those genes.
For survival (Kaplan-Meier) analysis: in the Compound 1 study, events were recorded when tumor volumes reached 1700 mm^3 or mice met criteria for humane endpoint (e.g. body weight loss, tumor ulceration, overall condition); in the Compound 3 study, events were recorded when tumor volumes reached 2000 mm^3, when mice met criteria for humane endpoint, or upon confirmed recurrence following a complete response (confirmed recurrence defined as a growing tumor […] following a complete response as defined above).

With `Cc1nc2c(F)c(-c3cccc(Cl)c3Cl)c(CCC#N)cc2c2c1cc([C@H]1C[C@H]3C[C@H]3N1C(=O)C1CC1)n2[C@H]1[C@H]2CN[C@@H]1C2` (atropisomer, axis not shown; (Ra)) [Compound 1, 3-((Ra)-1-((1R,4R,5S)-2-azabicyclo[2.1.1]hexan-5-yl)-2-((1R,3R,5R)-2-(cyclopropanecarbonyl)-2-azabicyclo[3.1.0]hexan-3-yl)-7-(2,3-dichlorophenyl)-6-fluoro-4-methyl-1H-pyrrolo[3,2-c]quinolin-8-yl)propanenitrile monohydrochloride dihydrate] the “pERK/ERK Inhibition Relative to Vehicle Control (%, Mean)” value ([1]; 100 mg/kg Cmpd 1 QD, 4 Hr, monohydrochloride dihydrate) was 84% and 56% and 85% and 89%.

With `COC(=O)N1[C@@H]2C[C@@H]([C@@H](OC(F)F)C2)[C@@H]1c1cc2c(C)nc3c(F)c(-c4cccc(Cl)c4Cl)c(CCC#N)cc3c2n1[C@H]1[C@H]2CN[C@@H]1C2` (atropisomer, axis not shown; (Ra)) [Compound 3, Methyl (1R,3R,4R,5S)-3-((Ra)-1-((1R,4R,5S)-2-azabicyclo[2.1.1]hexan-5-yl)-8-(2-cyanoethyl)-7-(2,3-dichlorophenyl)-6-fluoro-4-methyl-1H-pyrrolo[3,2-c]quinolin-2-yl)-5-(difluoromethoxy)-2-azabicyclo[2.2.1]heptane-2-carboxylate] the “TGI (tumor growth inhibition)” value (CT-26 Clone 299 cells; Compound 3 10 mg/kg BID PO monotherapy, day 34, vs vehicle (p=0.1127)) was 47% and the “TGI (tumor growth inhibition)” value (CT-26 Clone 299 cells; Compound 3 30 mg/kg BID PO monotherapy, day 34, vs vehicle (p=0.0411)) was 92%.

In the case of `Cc1c(Nc2nc(C(F)F)nc3cc(CN4CC[C@@H](O)C4)cnc23)cccc1-c1cccc(-c2nc3cc(CN4CCC(C(=O)O)CC4)cc(C#N)c3o2)c1C` [Compound 2, (R)-1-((7-Cyano-2-(3′-(2-(difluoromethyl)-7-((3-hydroxypyrrolidin-1-yl)methyl)pyrido[3,2-d]pyrimidin-4-ylamino)-2,2′-dimethylbiphenyl-3-yl)benzo[d]oxazol-5-yl)methyl)piperidine-4-carboxylic acid], the “TGI (tumor growth inhibition)” value (CT-26 Clone 299 cells; Compound 2 25 mg/kg BID PO monotherapy, day 25) is reported as 17%, the tumor growth (CT-26 Clone 299 cells; Compound 2 25 mg/kg BID monotherapy, Compound 3 study) is reported as “did not meaningfully alter tumor growth” and the “monotherapy-treated mice succumbed to tumor growth” value (CT-26 Clone 299 cells) is reported as 100%. For the same compound, the inhibition at 25 mg/kg ([1]; Mus musculus, CT26, Compound 2 25 mg/kg BID, 5 days, 4-hour post dose) was 10%.

“retifanlimab: humanized IgG4 monoclonal antibody that binds to human PD-1 [reference compound]” was tested, and the “monotherapy-treated mice succumbed to tumor growth” value (CT-26 Clone 299 cells) was 90%, the “TGI (tumor growth inhibition)” value (CT-26 Clone 299 cells; retifanlimab 10 mg/kg BIW IP monotherapy, day 25, Compound 1 study) was 52% and the “TGI (tumor growth inhibition)” value (CT-26 Clone 299 cells; retifanlimab 10 mg/kg BIW monotherapy, day 34, Compound 3 study (p=0.0263)) was 74%. It also gave a pERK inhibition ([1]; retifanlimab 10 mg/kg BIW, 24 hours post second dose) of 18%.

From US20250114346A1, “COMBINATION THERAPY USING A KRAS G12D INHIBITOR AND PD-1 INHIBITOR OR PD-L1 INHIBITOR” (Incyte Corporation, priority 2023, published 2025)
